Activity calls are given as the source filed them. How the calls were made is not given here.
Tested on: CCRIS mutagenicity, Ames/micronucleus/aberration tests
Assay: CCRIS mutagenicity studies
[1] = Test System: AMES SALMONELLA TYPHIMURIUM, Strain/Indicator: TA97, Metabolic Activation: NONE, Method: PREINCUBATION
[2] = Test System: AMES SALMONELLA TYPHIMURIUM, Strain/Indicator: TA98, Metabolic Activation: HAMSTER, LIVER, S-9, AROCLOR 1254 (10%), Method: PREINCUBATION
[3] = Test System: AMES SALMONELLA TYPHIMURIUM, Strain/Indicator: TA98, Metabolic Activation: RAT, LIVER, S-9, AROCLOR 1254 (10%), Method: PREINCUBATION
[4] = Test System: AMES SALMONELLA TYPHIMURIUM, Strain/Indicator: TA100, Metabolic Activation: HAMSTER, LIVER, S-9, AROCLOR 1254 (10%), Method: PREINCUBATION
[5] = Test System: AMES SALMONELLA TYPHIMURIUM, Strain/Indicator: TA100, Metabolic Activation: NONE, Method: PREINCUBATION
[6] = Test System: AMES SALMONELLA TYPHIMURIUM, Strain/Indicator: TA100, Metabolic Activation: RAT, LIVER, S-9, AROCLOR 1254 (10%), Method: PREINCUBATION
[7] = Test System: AMES SALMONELLA TYPHIMURIUM, Strain/Indicator: TA1535, Metabolic Activation: NONE, Method: PREINCUBATION
[8] = Test System: AMES SALMONELLA TYPHIMURIUM, Strain/Indicator: TA98, Metabolic Activation: NONE, Method: STANDARD PLATE
[9] = Test System: AMES SALMONELLA TYPHIMURIUM, Strain/Indicator: TA100, Metabolic Activation: NONE, Method: STANDARD PLATE

CC(C)C(C)C
mutagenic call (Test System: AMES SALMONELLA TYPHIMURIUM, Strain/Indicator: TA97, Metabolic Activation: HAMSTER, LIVER, S-9, AROCLOR 1254 (10 OR 30%), Method: PREINCUBATION): inactive; negative | mutagenic call [1]: inactive; negative | mutagenic call (Test System: AMES SALMONELLA TYPHIMURIUM, Strain/Indicator: TA97, Metabolic Activation: RAT, LIVER, S-9, AROCLOR 1254 (10 OR 30%), Method: PREINCUBATION): inactive; negative | mutagenic call [2]: inactive; negative | mutagenic call (Test System: AMES SALMONELLA TYPHIMURIUM, Strain/Indicator: TA98, Metabolic Activation: HAMSTER, LIVER, S-9, AROCLOR 1254 (30%), Method: DESICCATOR): inactive; negative | mutagenic call (Test System: AMES SALMONELLA TYPHIMURIUM, Strain/Indicator: TA98, Metabolic Activation: HAMSTER, LIVER, S-9, AROCLOR 1254 (30%), Method: PREINCUBATION): inactive; negative | mutagenic call (Test System: AMES SALMONELLA TYPHIMURIUM, Strain/Indicator: TA98, Metabolic Activation: NONE, Method: DESICCATOR): inactive; negative | mutagenic call (Test System: AMES SALMONELLA TYPHIMURIUM, Strain/Indicator: TA98, Metabolic Activation: NONE, Method: PREINCUBATION): inactive; negative | mutagenic call [3]: inactive; negative | mutagenic call (Test System: AMES SALMONELLA TYPHIMURIUM, Strain/Indicator: TA98, Metabolic Activation: RAT, LIVER, S-9, AROCLOR 1254 (30%), Method: DESICCATOR): inactive; negative | mutagenic call (Test System: AMES SALMONELLA TYPHIMURIUM, Strain/Indicator: TA98, Metabolic Activation: RAT, LIVER, S-9, AROCLOR 1254 (30%), Method: PREINCUBATION): inactive; negative | mutagenic call [4]: inactive; negative | mutagenic call (Test System: AMES SALMONELLA TYPHIMURIUM, Strain/Indicator: TA100, Metabolic Activation: HAMSTER, LIVER, S-9, AROCLOR 1254 (30%), Method: DESICCATOR): inactive; negative | mutagenic call (Test System: AMES SALMONELLA TYPHIMURIUM, Strain/Indicator: TA100, Metabolic Activation: HAMSTER, LIVER, S-9, AROCLOR 1254 (30%), Method: PREINCUBATION): inactive; negative | mutagenic call (Test System: AMES SALMONELLA TYPHIMURIUM, Strain/Indicator: TA100, Metabolic Activation: NONE, Method: DESICCATOR): inactive; negative | mutagenic call [5]: inactive; negative | mutagenic call [6]: inactive; negative | mutagenic call (Test System: AMES SALMONELLA TYPHIMURIUM, Strain/Indicator: TA100, Metabolic Activation: RAT, LIVER, S-9, AROCLOR 1254 (30%), Method: DESICCATOR): inactive; negative | mutagenic call (Test System: AMES SALMONELLA TYPHIMURIUM, Strain/Indicator: TA100, Metabolic Activation: RAT, LIVER, S-9, AROCLOR 1254 (30%), Method: PREINCUBATION): inactive; negative | mutagenic call (Test System: AMES SALMONELLA TYPHIMURIUM, Strain/Indicator: TA1535, Metabolic Activation: HAMSTER, LIVER, S-9, AROCLOR 1254 (10 OR 30%), Method: PREINCUBATION): inactive; negative | mutagenic call [7]: inactive; negative | mutagenic call (Test System: AMES SALMONELLA TYPHIMURIUM, Strain/Indicator: TA1535, Metabolic Activation: RAT, LIVER, S-9, AROCLOR 1254 (10 OR 30%), Method: PREINCUBATION): inactive; negative

O[C@@H]1[C@@H]2O[C@@H]2c2c(ccc3ccc4ccccc4c23)[C@H]1O
mutagenic call (Test System: E. COLI, Strain/Indicator: CL101P, Metabolic Activation: NONE, Method: PREINCUBATION): active; positive | mutagenic call (Test System: E. COLI, Strain/Indicator: CL102P, Metabolic Activation: NONE, Method: PREINCUBATION): active; positive | mutagenic call (Test System: E. COLI, Strain/Indicator: CL103P, Metabolic Activation: NONE, Method: PREINCUBATION): active; positive | mutagenic call (Test System: E. COLI, Strain/Indicator: CL104P, Metabolic Activation: NONE, Method: PREINCUBATION): active; positive | mutagenic call (Test System: E. COLI, Strain/Indicator: CL105P, Metabolic Activation: NONE, Method: PREINCUBATION): active; positive | mutagenic call (Test System: E. COLI, Strain/Indicator: CL106P, Metabolic Activation: NONE, Method: PREINCUBATION): active; positive

CC(=O)/C=C/c1ccccc1
mutagenic call (Test System: AMES SALMONELLA TYPHIMURIUM, Strain/Indicator: TA98, Metabolic Activation: HAMSTER, LIVER, S-9, AROCLOR 1254, Method: STANDARD PLATE): inactive; negative | mutagenic call [8]: inactive; negative | mutagenic call (Test System: AMES SALMONELLA TYPHIMURIUM, Strain/Indicator: TA98, Metabolic Activation: RAT, LIVER, S-9, AROCLOR 1254, Method: STANDARD PLATE): inactive; negative | mutagenic call (Test System: AMES SALMONELLA TYPHIMURIUM, Strain/Indicator: TA100, Metabolic Activation: HAMSTER, LIVER, S-9, AROCLOR 1254, Method: STANDARD PLATE): active; positive | mutagenic call [9]: inactive; negative | mutagenic call (Test System: AMES SALMONELLA TYPHIMURIUM, Strain/Indicator: TA100, Metabolic Activation: RAT, LIVER, S-9, AROCLOR 1254, Method: STANDARD PLATE): active; positive | mutagenic call (Test System: Mouse lymphoma, Strain/Indicator: L5178Y (tk+/tk-), Metabolic Activation: None, Method: Suspension/plate): active; positive | mutagenic call (Test System: Mouse lymphoma, Strain/Indicator: L5178Y (tk+/tk-), Metabolic Activation: Rat, Liver, S-9, Aroclor 1254, Method: Suspension/plate): inactive; negative

CC(O)CBr (stereo not drawn)
mutagenic call (Test System: AMES SALMONELLA TYPHIMURIUM, Strain/Indicator: TA97, Metabolic Activation: HAMSTER, LIVER, S-9, AROCLOR 1254 (10%), Method: PREINCUBATION): inactive; negative | mutagenic call [1]: inactive; negative | mutagenic call (Test System: AMES SALMONELLA TYPHIMURIUM, Strain/Indicator: TA97, Metabolic Activation: RAT, LIVER, S-9, AROCLOR 1254 (10%), Method: PREINCUBATION): inactive; negative | mutagenic call [2]: inactive; negative | mutagenic call [3]: inactive; negative | mutagenic call [4]: inactive; negative | mutagenic call [5]: active; positive | mutagenic call [6]: active; positive | mutagenic call (Test System: AMES SALMONELLA TYPHIMURIUM, Strain/Indicator: TA1535, Metabolic Activation: HAMSTER, LIVER, S-9, AROCLOR 1254 (10%), Method: PREINCUBATION): active; positive | mutagenic call [7]: active; positive | mutagenic call (Test System: AMES SALMONELLA TYPHIMURIUM, Strain/Indicator: TA1535, Metabolic Activation: RAT, LIVER, S-9, AROCLOR 1254 (10%), Method: PREINCUBATION): active; positive

N[C@@H](CCC(=O)N(CC(=O)O)C(=O)[C@@H](N)CSCCCl)C(=O)O
mutagenic call [9]: active; positive

Cc1cc(C)c(N)c(C)c1N
mutagenic call (Test System: AMES SALMONELLA TYPHIMURIUM, Strain/Indicator: TA97, Metabolic Activation: NONE, Method: STANDARD PLATE): inactive; negative | mutagenic call (Test System: AMES SALMONELLA TYPHIMURIUM, Strain/Indicator: TA97, Metabolic Activation: RAT, LIVER, S-9, Method: STANDARD PLATE): active; positive | mutagenic call [8]: inactive; negative | mutagenic call (Test System: AMES SALMONELLA TYPHIMURIUM, Strain/Indicator: TA98, Metabolic Activation: RAT, LIVER, S-9, Method: STANDARD PLATE): active; positive | mutagenic call [9]: active; positive | mutagenic call (Test System: AMES SALMONELLA TYPHIMURIUM, Strain/Indicator: TA100, Metabolic Activation: RAT, LIVER, S-9, Method: STANDARD PLATE): active; positive | mutagenic call (Test System: AMES SALMONELLA TYPHIMURIUM, Strain/Indicator: TA1535, Metabolic Activation: NONE, Method: STANDARD PLATE): active; positive | mutagenic call (Test System: AMES SALMONELLA TYPHIMURIUM, Strain/Indicator: TA1535, Metabolic Activation: RAT, LIVER, S-9, Method: STANDARD PLATE): active; positive

COc1c2ccoc2cc2oc(=O)ccc12
mutagenic call [8]: inactive; negative | mutagenic call (Test System: AMES SALMONELLA TYPHIMURIUM, Strain/Indicator: TA98, Metabolic Activation: RAT, LIVER, S-9, PHENOBARBITAL, Method: STANDARD PLATE): inactive; negative

— PubChem BioAssay AID1259407 (Chemical Carcinogenesis Research Information System (CCRIS), 2018)
